This test has as its system α4β2δ GABAA receptors. In words: Whole cell patch clamp of GABA-gated current, recombinant receptors in HEK-293 cells. Particulars: 30 nM THP. The class given is cell-based, human or mouse α4, rat β2, human δ. An excerpt: Recombinant receptors: Transfection—Plasmids obtained from S. Vicini (rat α1, α5, β2, β3 and γ2), P. Whiting (human α4 and δ) and N. L. Harrison (mouse α4) were propagated in E coli DH5α and prepared using Qiagen Maxi- or Midi-prep kits. (Rat, mouse and human α1, β2, β3 and γ2 subunits are identical or nearly identical.) All receptors were transfected at a 1:1:1 ratio, except α1β2γ2 (1:1:5)^12, α4βδ (5:1:5)^13 and α4β2γ2 (5:1:1). HEK-293 cells were maintained in medium (DMEM:Ham's F-12 1:1) supplemented with 10% fetal calf serum at 37° C. in a humid 5% CO2 atmosphere. Cells were transfected using calcium phosphate or Polyfect (Qiagen) and co-transfected with enhanced green fluorescent protein (ratio of DNA to eGFP was 6:1 or 10:1 depending on the DNA concentration) for visualization. α4-containing GABAA receptors required 2-3 d for maximal levels of expression; all other receptors were recorded 1-2 d after transfection. Because mouse α4 and human α4-containing receptors yielded the same results, the currents were averaged together.
Whole cell patch clamp recording—GABA-gated currents were recorded at room temperature (20-22° C.) at a holding potential of −50 mV^14. The pipet solution contained (in mM): N-methyl-D-glucamine chloride 120, Cs4BAPTA 5 (Calbiochem), Mg-ATP 5, and an ATP regeneration system (20 mM Tris phosphocreatine and creatine kinase). Internal [Cl^−] or the holding potential were varied, using gluconate as the anion, to alter the direction of Cl^− flow, corrected for the junction potential. In some cases, current-voltage curves were constructed using the peak current response to agonist or agonist+THP across a range of holding potentials (−60 to +60) applied as 10 mV steps, or as a voltage ramp. […] Traces are presented as the average of 3 traces after subtraction of the leak current. […] This rapid application technique yields currents with a rapid rise phase. THP was also bath applied 30 s prior to tests of steroid effects. Currents were recorded using an Axopatch 1D amplifier (Axon Instruments) filtered at 2 kHz (four-pole Bessel filter) and detected at 10 kHz (pClamp 5.1). Analysis of peak current was accomplished with pClamp 9.2 and Origin software (Microcal).
Following the recording, the patch was blown out, and the open tip potential recorded using solutions with a 5% difference in NaCl osmolarity to verify the approximate solution exchange time. The time constant (τ) for desensitization was approximated using non-linear curve fitting routines with Levenburg-Marquardt algorithms (Origin software, Microcal). Goodness of fit was determined by minimizing the sum of the squares of deviations of the theoretical curve from the experimental points.
Recombinant receptors: Human embryonic kidney (HEK)-293 cells were transfected with α4 β2δ or other indicated subunit combinations (see Supplementary Methods) and co-transfected with enhanced green fluorescent protein for visualization. GABA-gated currents were recorded at room temperature (20-22° C.) at a holding potential of −50 mV^17 using a pipet solution containing 120 mM: N-methyl-D-glucamine chloride. Internal [Cl^−] or the holding potential were varied to alter the direction of Cl^− flow. […] Currents were recorded using an Axopatch 1D amplifier (Axon Instruments) filtered at 2 kHz (four-pole Bessel filter), detected at 10 kHz and analyzed with pClamp 9.2. Desensitization rate was determined using non-linear curve-fitting routines (Origin, Microcal; see next section).
Further Studies with Recombinant receptors: Transfection—Plasmids obtained from S. Vicini (rat α1, α5, β2, β3 and y2), P. Whiting (human α4 and 6) and N. L. Harrison (mouse α4) were propagated in E coli DH5α and prepared using Qiagen Maxi- or Midi-prep kits. (Rat, mouse and human α1, β2, β3 and γ2 subunits are identical or nearly identical.) All receptors were transfected at a 1:1:1 ratio, except a132γ2 (1:1:5)^12, α4β28 (5:1:5)^13 and α4β2γ2 (5:1:1). […]
In general terms: The patch-clamp technique gives a direct electrical read-out from membranes.

From US20090269795A1, “Mutant alpha4betadelta GABAA receptor and methods of treating anxiety or irritability” (priority 2007, published 2009) come the findings set out here.

On to `CC(=O)[C@H]1CC[C@H]2[C@@H]3CC[C@H]4C[C@H](O)CC[C@]4(C)[C@H]3CC[C@]12C` [THP, 3α-OH-5α[β]-pregnan-20-one], for which the “effect on Cl− reversal potential” value is “did not itself alter the Cl^− reversal potential”. Besides, under “no GABA”, the “effect applied without GABA” value was “had no effect”. In addition, the “effect on outward current gated by 20 nM GABA” value (20 nM GABA) is recorded as “potentiated”. The “effect on inward currents” value (1 μM GABA) was “robustly increased inward currents”. Besides, for the setting “1 μM GABA, −50 mV, mean±SEM”, the “decrease of outward GABA-gated Cl− current” value is recorded as 28±3%. Moreover, the “effect on peak current” value (100 μM GABA) is “unchanged”. Moreover, the “desensitization of outward currents” value (100 μM GABA for 2 s, pre-THP 8±2%) is listed as 87±5.6%. In addition, the “time constant (τ) of desensitization” value (100 μM GABA, pre-THP 1700±200 ms) came to 230 ± 35 ms. The “decrease of conductance of the outward current” value (across a range of voltage steps) is given as 36-43%.
